Patent publication US5869527A, “6-(N-carboxymethylamino)caproate, salts thereof and methods of use therefor” (Alteon Inc., priority 1996, dated 1999)

Legend:
[1] = biological target: monoclonal antibody 2G6; experiment: Competition ELISA, inhibition of mAb 2G6 binding; parameters: species or system mouse
Method: (§1) The ability of monoclonal antibodies, mAb 4G9, mAb BH4 and mAb 2G6, raised against KLH non-enzymatically glycated by prolonged incubation with glucose (KLH-AGE), to recognize the disodium 6-(N-carboxymethylamino)caproate was determined.
(§2) Direct ELISA and competition ELISA. For direct ELISA, 6- (N-carboxymethylamino)caproate was coated on microtiter plates, the unbound sites were blocked by incubation with Assay Buffer (25 mM borate, pH 8.0, 150 mM NaCl, 0.01% EDTA and 1% BSA). The plate was washed six times and increasing concentrations of mAb in Assay Buffer were added. […] The unbound antibodies were removed by extensive washing and the bound antibodies were detected by addition of p-nitrophenylphosphate in recording the optical density at 410 nm.
(§3) The competition ELISA was performed by pre-coating microtiter plates with disodium 6-(N-carboxymethylamino)caproate and blocking with Assay Buffer. […] The unbound materials were removed by extensive washing and the bound mAb was detected with alkaline phosphatase labeled anti-mouse antibodies similar to direct ELISA. […]
(§4) Competitive ELISA: Plates coated with BSA-AGE at 10 μg/ml. […] In the case of isothiocyanate the plates are soaked for 15 minutes with varying concentrations of isothiocyanate and the level of binding then measured.

[2] = biological target: monoclonal antibody 4G9; experiment: Competition ELISA, inhibition of mAb 4G9 binding; parameters: species or system mouse
Method: as §1, §2, §3, §4

[3] = tested on: antibodies to advanced glycosylation endproducts; experiment: Recognition of compounds by monoclonal antibodies to advanced glycosylation endproducts (direct/competition ELISA); assay type: binding; details: qualitative
Method: as §1
Direct ELISA and competition ELISA. For direct ELISA, 6- (N-carboxymethylamino)caproate was coated on microtiter plates, the unbound sites were blocked by incubation with Assay Buffer (25 mM borate, pH 8.0, 150 mM NaCl, 0.01% EDTA and 1% BSA). The plate was washed six times and increasing concentrations of mAb in Assay Buffer were added. After this incubation, the plate was again washed and incubated with alkaline-phosphatase labeled goat anti-mouse antibodies (Cappel, Durham, N.C.) diluted 1:1000 in Assay Buffer. The unbound antibodies were removed by extensive washing and the bound antibodies were detected by addition of p-nitrophenylphosphate in recording the optical density at 410 nm.
as §3

[4] = biological target: monoclonal antibody BH4; experiment: Competition ELISA, inhibition of mAb BH4 binding; parameters: species or system mouse
Method: as §1, §2, §3, §4

[5] = tested on: Hb-AGE; details: diabetic patients treated for 28 days; WO 93/13421; cited from earlier work
[6] = tested on: advanced glycosylation endproducts; details: U.S. Pat. No. 4,758,583; cited from earlier work
[7] = Competitive ELISA, plates coated with BSA-AGE at 10 μg/ml

Row | Concentration of Antigen for 50% Inhibition of mAb 2G6 [1, 7] | recognition by monoclonal antibody 2G6 ([1]; qualitative, ELISA) | Concentration of Antigen for 50% Inhibition of mAb 4G9 [2, 7] | recognition by monoclonal antibody 4G9 ([2]; qualitative, ELISA) | Concentration of Antigen for 50% Inhibition of mAb BH4 [4, 7] | recognition by monoclonal antibody BH4 ([4]; qualitative, ELISA) | SMILES | recognition by antibodies which recognize advanced glycosylation endproducts [3] | levels of Hb-AGE at the end of the treatment period [5] | inhibition of formation of advanced glycosylation endproducts [6]
1 | 21 pmol/well | displayed recognition | 11 pmol/well | displayed recognition | 5.7 pmol/well | displayed recognition | O=C(O)CCCCCNCC(=O)O [ALT-927, disodium 6-(N-carboxymethylamino)caproate] | have been shown to recognize | – | –
2 | – | – | – | – | – | – | N=C(N)NN [aminoguanidine] | – | significantly decreased levels of Hb-AGE | identified as an inhibitor
